Test system: cotton aphid (Aphis gossypii)
Experiment: Cotton aphid test in the same manner, more definitive percent mortality at selected rates and exposure times (Table 3)
Type: in vivo
Description: The compounds of formula I useful in the present invention were tested for insecticidal activity by observing mortality in a population of cotton aphid (Aphis gossypii) on treated cotton plants caused by a test compound, when compared to like populations of cotton aphid on untreated plants. These tests were conducted in the following manner:
For each rate of application of test compound, two seven-to-ten days old cotton seedlings (Gossypium hirsutium) grown in 7.6 cm diameter pots were selected for the test. Each test plant was infested with about 120 adult cotton aphids by placing onto each test plant cuttings of leaves from cotton plants grown in a cotton aphid colony. Once infested, the test plants were maintained for up to about 12 hours to allow complete translocation of the aphids onto the test plant. A solution comprising 1000 part per million (ppm) of each test compound was prepared by dissolving 10 milligrams of the test compound in 1 mL of acetone. Each solution was then diluted with 9 mL of a solution of 0.03 mL of polyoxyethylene(10) isooctylphenyl ether in 100 mL of water. About 2.5 mL of solution of each test compound was needed to spray each replicate of test plant (5 mL total for each test compound). If needed, the solution of 1000 ppm of test compound was serially diluted with a solution of 10% acetone and 300 ppm of polyoxyethylene(10) isooctylphenyl ether in water to provide solutions of each test compound for lower rates of application, for example, 300 ppm, 100 ppm, 30 ppm, or 10 ppm. Each replicate of test plant was sprayed with the solutions of test compound until run-off on both the upper and lower surfaces of the leaves. All the test plants were sprayed using a DeVilbus Atomizer Model 152 (Sunrise Medical, Carlsbad, Calif.) at a pressure of about 0.63-0.74 kilogram per square centimeter from a distance of about 30.5 centimeters from the test plants. For comparison purposes, a solution of a standard, such as amitraz or demethylchlordimeform (DCDM), prepared in a manner analogous to that set forth above, as well as a solution of 10% acetone and 300 ppm of polyoxyethylene(10) isooctylphenyl ether in water containing no test compound were also sprayed onto test plants. Upon completion of spraying the solutions of test compound, the solution of standard, and the solution containing no test compound, the plants were allowed to dry. […] After this time, each plant was assessed for percent mortality caused by the test compound when compared to the population of aphids that was infested onto the test plants prior to treatment with test compound. […] If there was 75% mortality or greater of the cotton aphid, a test compound was designated as being more insecticidally active (A).
In a test conducted in the same manner as set forth above, certain compounds of formula I were tested to determine a more definitive percent mortality of cotton aphid.

Compound	Percent Mortality of Cotton Aphid on Cotton Plants (100 ppm, 168 hours exposure)	other results
CC(C)N1CCC(=C2c3ccccc3Sc3ccccc32)CC1 [Compound 3]		Percent Mortality of Cotton Aphid on Cotton Plants (100 ppm, 96 hours exposure): 80%
CN1CCC(=C2c3ccccc3Oc3ccc(F)cc32)CC1 [Compound 9]		Percent Mortality of Cotton Aphid on Cotton Plants (100 ppm, 72 hours exposure): 26%
CN1CCC(=C2c3ccccc3Oc3c(F)cccc32)CC1 [Compound 11]		Percent Mortality of Cotton Aphid on Cotton Plants (100 ppm, 96 hours exposure): 42%
CCc1ccc2c(c1)C(=C1CCN(C)CC1)c1ccccc1O2 [Compound 12]		Percent Mortality of Cotton Aphid on Cotton Plants (100 ppm, 72 hours exposure): 26%
CN1CCC(=C2c3ccccc3Oc3ccc(C(F)(F)F)cc32)CC1 [Compound 15]		Percent Mortality of Cotton Aphid on Cotton Plants (100 ppm, 96 hours exposure): 28%
CCOC(=O)CCN1CCC(=C2c3ccccc3Oc3ccccc32)CC1 [Compound 20]		Percent Mortality of Cotton Aphid on Cotton Plants (100 ppm, 72 hours exposure): 37%
CN1CCC(=C2c3ccccc3COc3ccccc32)CC1.Cl [Compound 26]		Percent Mortality of Cotton Aphid on Cotton Plants (100 ppm, 72 hours exposure): 84%
CCN(CC)CCOC1Cc2ccccc2Sc2ccc(OC(F)(F)F)cc21 (centres unmarked) [Compound 52]		Percent Mortality of Cotton Aphid on Cotton Plants (300 ppm, 72 hours exposure): 100%
CN1CCN(C2Cc3ccccc3Oc3ccc(Cl)cc32)CC1 (centres unmarked) [Compound 64]	74%	
CN1CCN(C2Cc3ccccc3Oc3ccc(Br)cc32)CC1 (centres unmarked) [Compound 65]	100%	
CN1CCN(C2Cc3ccccc3Oc3ccc(F)cc32)CC1 (centres unmarked) [Compound 66]	61%	
CN1CCN(C2Cc3ccccc3Oc3ccc(I)cc32)CC1 (centres unmarked) [Compound 67]	75%	
CN1CCN(C2Cc3ccccc3Oc3ccc(C(F)(F)F)cc32)CC1 (centres unmarked) [Compound 69]	69%	
CSc1ccc2c(c1)C(N1CCN(C)CC1)Cc1ccccc1O2 (centres unmarked) [Compound 70]	57%	
CN1CCN(C2Cc3ccccc3Oc3ccc(OC(F)(F)F)cc32)CC1 (centres unmarked) [Compound 71]	100%	
C[N+]1([O-])CCN(C2Cc3ccccc3Oc3ccc(OC(F)(F)F)cc32)CC1 (centres unmarked) [Compound 72]	100%	

Compound	Percent Mortality of Cotton Aphid on Cotton Plants (100 ppm, 168 hours exposure)	other results
CN1CCN(C2Cc3ccccc3Oc3cc(OC(F)(F)F)ccc32)CC1 (centres unmarked) [Compound 73]	35%	
CN1CCN(C2Cc3ccccc3Oc3ccc(SC(F)(F)F)cc32)CC1 (centres unmarked) [Compound 75]	86%	
CN1CCN(C2Cc3ccccc3Oc3ccc([S+]([O-])C(F)(F)F)cc32)CC1 (centres unmarked) [Compound 76]	32%	
CN1CCN(C2Cc3ccccc3Oc3ccc(S(=O)(=O)C(F)(F)F)cc32)CC1 (centres unmarked) [Compound 77]	37%	
C=Cc1ccc2c(c1)C(N1CCN(C)CC1)Cc1ccccc1O2 (centres unmarked) [Compound 78]	53%	
C#Cc1ccc2c(c1)C(N1CCN(C)CC1)Cc1ccccc1O2 (centres unmarked) [Compound 79]	35%	
CN1CCN(C2Cc3ccccc3Oc3ccc(C#C[Si](C)(C)C)cc32)CC1 (centres unmarked) [Compound 80]		Percent Mortality of Cotton Aphid on Cotton Plants (1000 ppm, 168 hours exposure): 83%
CN1CCN(C2Cc3ccccc3Oc3cc(Cl)c(Cl)cc32)CC1 (centres unmarked) [Compound 82]	98%	
CN1CCN(C2Cc3ccccc3Oc3c(Cl)cc(Cl)cc32)CC1 (centres unmarked) [Compound 83]	41%	
CN1CCN(C2Cc3ccccc3Oc3c(F)cc(Cl)cc32)CC1 (centres unmarked) [Compound 85]		Percent Mortality of Cotton Aphid on Cotton Plants (1000 ppm, 168 hours exposure): 92%
CN1CCN(C2Cc3ccccc3Oc3c(Cl)cc(F)cc32)CC1 (centres unmarked) [Compound 87]		Percent Mortality of Cotton Aphid on Cotton Plants (1000 ppm, 168 hours exposure): 97%
CN1CCN(C2Cc3ccccc3Oc3c(F)cc(Br)cc32)CC1 (centres unmarked) [Compound 88]	35%	
Cc1cc(Br)cc2c1Oc1ccccc1CC2N1CCN(C)CC1 (centres unmarked) [Compound 89]	55%	
CN1CCN(C2Cc3ccccc3Sc3ccccc32)CC1.O=C(O)/C=C\C(=O)O (centres unmarked) [Compound 90]		Percent Mortality of Cotton Aphid on Cotton Plants (1000 ppm, 168 hours exposure): 74%
CN1CCN(C2Cc3cc(Cl)ccc3Sc3cc(Cl)ccc32)CC1 (centres unmarked) [Compound 92]		Percent Mortality of Cotton Aphid on Cotton Plants (100 ppm, 72 hours exposure): 48%
CN1CCN(C2Cc3ccccc3Sc3c(F)cccc32)CC1 (centres unmarked) [Compound 94]		Percent Mortality of Cotton Aphid on Cotton Plants (1000 ppm, 72 hours exposure): 100%
